Results from ChEMBL document CHEMBL1201862, “PubChem BioAssay data set” (2004).
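Five compound concentrations were applied to cells in 96-well plates for 48 hours; endpoints were derived by simple linear interpolation of the resulting dose-response curve. At the GI50, growth is halved.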 Active and inactive are the calls of the source. No stated cut-off is given here; in the data, active = GI50 up to about 1.1 µM and inactive = higher.

Assays:
Assay in all cases: inhibition of tumour cell growth, NCI panel, 48 h
COLO 205 = test system: COLO 205
NCI-H23 = test system: NCI-H23
DU-145 = test system: DU-145
HOP-62 = test system: HOP-62
UACC-257 = test system: UACC-257
A498 = test system: A498
MCF7 = test system: MCF7
OVCAR-3 = test system: OVCAR-3
SR = test system: SR
RPMI-8226 = test system: RPMI-8226
CAKI-1 = test system: CAKI-1
LOX IMVI = test system: LOX IMVI
786-0 = test system: 786-0
BT-549 = test system: BT-549
MDA-MB-435 = test system: MDA-MB-435
PC-3 = test system: PC-3
NCI-H226 = test system: NCI-H226
OVCAR-4 = test system: OVCAR-4
MDA-MB-231 = test system: MDA-MB-231
SF-268 = test system: SF-268
HCT-15 = test system: HCT-15
TK-10 = test system: TK-10
SNB-75 = test system: SNB-75
ACHN = test system: ACHN
MOLT-4 = test system: MOLT-4
HCC 2998 = test system: HCC 2998
SK-MEL-28 = test system: SK-MEL-28
MDA-N = test system: MDA-N
RXF 393 = test system: RXF 393
NCI-H460 = test system: NCI-H460
UO-31 = test system: UO-31
T47D = test system: T47D
SN12C = test system: SN12C
UACC-62 = test system: UACC-62
SW-620 = test system: SW-620
NCI/ADR-RES = test system: NCI/ADR-RES
HCT-116 = test system: HCT-116
SK-MEL-2 = test system: SK-MEL-2
U-251 = test system: U-251
K562 = test system: K562
Hs-578T = test system: Hs-578T
SK-OV-3 = test system: SK-OV-3
OVCAR-8 = test system: OVCAR-8
KM12 = test system: KM12
SF-295 = test system: SF-295
OVCAR-5 = test system: OVCAR-5
EKVX = test system: EKVX
M14 = test system: M14
A549 = test system: A549
SNB-19 = test system: SNB-19

Measured: GI50

ClC1(Cl)C(c2ccccc2)C1c1ccccc1 (stereo not given)
21.6 µM: HCT-15
inactive: COLO 205 36 µM | NCI-H23 24.6 µM | DU-145 42.2 µM | HOP-62 23.2 µM | UACC-257 30.7 µM | A498 38.8 µM | MCF7 56 µM | OVCAR-3 21.1 µM | SR 7.64 µM | RPMI-8226 24.4 µM | CAKI-1 30 µM | LOX IMVI 28.2 µM | 786-0 28.5 µM | BT-549 33.4 µM | MDA-MB-435 7.35 µM | PC-3 62.2 µM | NCI-H226 14.6 µM | OVCAR-4 44.6 µM | MDA-MB-231 54.2 µM | SF-268 32.4 µM | TK-10 54 µM | SNB-75 46 µM | ACHN 25.6 µM | MOLT-4 26.7 µM | HCC 2998 11.1 µM | SK-MEL-28 41.7 µM | MDA-N 5.32 µM | RXF 393 14.4 µM | NCI-H460 13.2 µM | UO-31 26.9 µM | T47D 34.6 µM | SN12C 39.4 µM | UACC-62 29.5 µM | SW-620 22.2 µM | NCI/ADR-RES 7.16 µM | HCT-116 23.9 µM | SK-MEL-2 13.8 µM | U-251 41.3 µM | K562 9.68 µM | Hs-578T 20.7 µM | SK-OV-3 18.8 µM | OVCAR-8 21.2 µM | KM12 21.4 µM | SF-295 17.8 µM | OVCAR-5 43.6 µM | EKVX 18.3 µM | M14 27.7 µM | A549 23 µM | SNB-19 25.9 µM
